pIC50: −log10 of the molar value.
Tested on: 126254-015-R-J1-PDC complex spheroid growth, % test/control
Experiment: Anticancer human tumor 126254-015-R-J1-PDC patient-derived soft tissue sarcoma cell line growth inhibition [Asc]
Settings: for pIC50: curve of first compound; for viability, T/C: stronger effect = lower value; active means viability on the fitted dose curve at most 10% of control; inactive means the rest
Outline: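 Stromal components (HUVEC and hMSC) are co-assembled with the cancer cells into multicellular spheroids. Drugs are then added singly or paired, at concentrations falling by half-log increments from a clinically achievable maximum, capped at 10 microM without known Cmax.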
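Further: spheroids exposed to compound for seven days.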
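Wherever viability, T/C is given: 100% = DMSO vehicle control wells.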

NC1CCC(NC2CC2c2ccccc2)CC1 (stereo not given) + CNC(C)C(=O)NC1CN(S(=O)(=O)c2cccc(S(=O)(=O)N3CCC4CCC(C(=O)NC(c5ccccc5)c5ccccc5)N4C(=O)C(NC(=O)C(C)NC)C3)c2)CCC2CCC(C(=O)NC(c3ccccc3)c3ccccc3)N2C1=O
< 7.00: pIC50 (second compound 0.01 µM) | pIC50 (second compound 0.0316 µM) | pIC50 (second compound 0.1 µM) | pIC50 (second compound 0.316 µM) | pIC50 (second compound 1 µM)
inactive: viability, T/C (second compound 0.01 µM, first compound 0.000316 µM) 86.3% | viability, T/C (second compound 0.01 µM, first compound 0.001 µM) 89.1% | viability, T/C (second compound 0.01 µM, first compound 0.00316 µM) 87.1% | viability, T/C (second compound 0.01 µM, first compound 0.01 µM) 75.5% | viability, T/C (second compound 0.01 µM, first compound 0.0316 µM) 80.5% | viability, T/C (second compound 0.01 µM, first compound 0.1 µM) 75% | viability, T/C (second compound 0.0316 µM, first compound 0.000316 µM) 79.2% | viability, T/C (second compound 0.0316 µM, first compound 0.001 µM) 81.6% | viability, T/C (second compound 0.0316 µM, first compound 0.00316 µM) 77.5% | viability, T/C (second compound 0.0316 µM, first compound 0.01 µM) 77.3% | viability, T/C (second compound 0.0316 µM, first compound 0.0316 µM) 78.1% | viability, T/C (second compound 0.0316 µM, first compound 0.1 µM) 70.6% | viability, T/C (second compound 0.1 µM, first compound 0.000316 µM) 70.3% | viability, T/C (second compound 0.1 µM, first compound 0.001 µM) 71.3% | viability, T/C (second compound 0.1 µM, first compound 0.00316 µM) 72.2% | viability, T/C (second compound 0.1 µM, first compound 0.01 µM) 69.6% | viability, T/C (second compound 0.1 µM, first compound 0.0316 µM) 68.8% | viability, T/C (second compound 0.1 µM, first compound 0.1 µM) 68% | viability, T/C (second compound 0.316 µM, first compound 0.000316 µM) 62.2% | viability, T/C (second compound 0.316 µM, first compound 0.001 µM) 71.6% | viability, T/C (second compound 0.316 µM, first compound 0.00316 µM) 65% | viability, T/C (second compound 0.316 µM, first compound 0.01 µM) 54.5% | viability, T/C (second compound 0.316 µM, first compound 0.0316 µM) 61.7% | viability, T/C (second compound 0.316 µM, first compound 0.1 µM) 57.8% | viability, T/C (second compound 1 µM, first compound 0.000316 µM) 49.5% | viability, T/C (second compound 1 µM, first compound 0.001 µM) 56.5% | viability, T/C (second compound 1 µM, first compound 0.00316 µM) 54.5% | viability, T/C (second compound 1 µM, first compound 0.01 µM) 50.9% | viability, T/C (second compound 1 µM, first compound 0.0316 µM) 53.8% | viability, T/C (second compound 1 µM, first compound 0.1 µM) 53%

Cc1nc(N2CCC3(CC2)COC(C)C3N)c(CO)nc1Sc1ccnc(N)c1Cl (stereo not given) + Cc1c(S(C)(=O)=O)c(-c2cc(F)cc(N3CCN(c4ccc(NS(=O)(=O)c5ccc(NC(CCN6CCC(C(=O)OCCCP(=O)(O)O)CC6)CSc6ccccc6)c(S(=O)(=O)C(F)(F)F)c5)cc4)CC3)c2)c(-c2ccc(Cl)cc2)n1C(C)C
6.33: pIC50 (second compound 10 µM)
6.44: pIC50 (second compound 3.16 µM)
6.30: pIC50 (second compound 1 µM)
6.35: pIC50 (second compound 0.316 µM)
inactive: viability, T/C (second compound 0.1 µM, first compound 0.00949 µM) 88.7% | viability, T/C (second compound 0.1 µM, first compound 0.03 µM) 82.2% | viability, T/C (second compound 0.1 µM, first compound 0.0949 µM) 68.6% | viability, T/C (second compound 0.1 µM, first compound 0.3 µM) 56.7% | viability, T/C (second compound 0.1 µM, first compound 0.949 µM) 51.9% | viability, T/C (second compound 0.1 µM, first compound 3 µM) 34.4% | viability, T/C (second compound 0.316 µM, first compound 0.00949 µM) 83.1% | viability, T/C (second compound 0.316 µM, first compound 0.03 µM) 77.6% | viability, T/C (second compound 0.316 µM, first compound 0.0949 µM) 67.8% | viability, T/C (second compound 0.316 µM, first compound 0.3 µM) 55.3% | viability, T/C (second compound 0.316 µM, first compound 0.949 µM) 41% | viability, T/C (second compound 0.316 µM, first compound 3 µM) 34.2% | viability, T/C (second compound 1 µM, first compound 0.00949 µM) 80.8% | viability, T/C (second compound 1 µM, first compound 0.03 µM) 75.7% | viability, T/C (second compound 1 µM, first compound 0.0949 µM) 72.2% | viability, T/C (second compound 1 µM, first compound 0.3 µM) 54.4% | viability, T/C (second compound 1 µM, first compound 0.949 µM) 43.2% | viability, T/C (second compound 1 µM, first compound 3 µM) 30.7% | viability, T/C (second compound 3.16 µM, first compound 0.00949 µM) 78.6% | viability, T/C (second compound 3.16 µM, first compound 0.03 µM) 80.7% | viability, T/C (second compound 3.16 µM, first compound 0.0949 µM) 70.4% | viability, T/C (second compound 3.16 µM, first compound 0.3 µM) 51.7% | viability, T/C (second compound 3.16 µM, first compound 0.949 µM) 40.1% | viability, T/C (second compound 3.16 µM, first compound 3 µM) 34.6% | viability, T/C (second compound 10 µM, first compound 0.00949 µM) 79.2% | viability, T/C (second compound 10 µM, first compound 0.03 µM) 84.7% | viability, T/C (second compound 10 µM, first compound 0.0949 µM) 74% | viability, T/C (second compound 10 µM, first compound 0.3 µM) 56.1% | viability, T/C (second compound 10 µM, first compound 0.949 µM) 40.2% | viability, T/C (second compound 10 µM, first compound 3 µM) 32%
6.12: pIC50 (second compound 0.1 µM)

Reference: PubChem BioAssay AID1963429 (Molecular Pharmacology Branch, DTP, NCI, 2024)
